Starred links: 1 amine or outer side, 2 acyl side, 3 side chain; linkers in the order of their positions; H or OH if unused. Positions of bridges follow the written chain, without caps; N, C: chain ends. Non-standard residues stand in square brackets, D forms with d. Residues, ends and D or L forms follow the SMILES beside them. *: point of attachment. NMeF = CN[C@@H](Cc1ccccc1)C(=O)O; NMeI = CC[C@H](C)[C@H](NC)C(=O)O; NMeT = CN[C@H](C(=O)O)[C@@H](C)O; hPhe = N[C@@H](CCc1ccccc1)C(=O)O; NMeβAla = CN(CCC(=O)[*:2])[*:1]; NMeL = CN[C@@H](CC(C)C)C(=O)O; dNMeV = CN[C@@H](C(=O)O)C(C)C; NMeV = CN[C@H](C(=O)O)C(C)C; NMeAbu = CC[C@H](NC)C(=O)O; NMeA = CN[C@@H](C)C(=O)O; Piperidide = C1CCN(*)CC1; Abu = CC[C@H](N)C(=O)O; NBuGly = CCCCNCC(=O)O; Sar = CNCC(=O)O; tBu = CC(C)(C)*

The nature of series [1]: Membrane permeability test using Caco-2 cells with preincubation. In kind it is in vitro ADME. Particulars: Caco-2; preincubation 20 to 24 hours; Apical FaSSIF/HBSS pH 6.0, Basal HBSS 4% BSA pH 7.4; 180 minutes; read-out: Caco2 Papp.
A further series has as its system Caco-2 cells. The description is as above. In kind it is in vitro ADME. The note with it: Caco-2 cells, preincubation 20 to 24 hours; apical FaSSIF/HBSS 1% DMSO pH 6.0, basal HBSS 4% BSA pH 7.4; basal sample at 180 minutes.
Series [2] is described as follows: Metabolic stability test: liver microsomal stability assay. In kind it is in vitro ADME, mouse. The note with it: mouse liver microsomes 0.5 mg protein/mL, compound 1 µM; for microsomal CLint at 1 µM: male, pH 7.4, presence of NADPH, read-out: Mouse Hepatic Microsome CLh,int NADPH(+); for Mouse Hepatic Microsome CLh,int NADPH(-): absence of NADPH. On the technique in general: Microsomes from liver hold many membrane-bound enzymes, among them those of drug oxidation.

For `CCCCN1CC(=O)N[C@@H]([C@@H](C)CC)C(=O)N(C)[C@@H](CC(C)C)C(=O)N[C@@H](C(C)C)C(=O)N[C@H](C(=O)N2CCCCC2)CC(=O)N(C)[C@@H](C)C(=O)N(C)[C@@H](CC(C)C)C(=O)N[C@@H]([C@@H](C)O)C(=O)N(C)[C@@H](Cc2ccccc2)C(=O)N[C@@H](CC)C(=O)N(C)[C@@H](Cc2ccccc2)C(=O)N[C@@H](C)C(=O)N(C)CCC(=O)N[C@@H](CC(C)C)C1=O` [pd026] ([NMeA][NMeL]T[NMeF][Abu][NMeF]A[NMeβAla]L[NBuGly]I[NMeL]VD-Piperidide; lactam N-14), the Papp A→B in series [1] is 0.58 ×10⁻⁶ cm/s. In the series on Caco-2 cells, the “Caco2 Papp (10^-6 cm/sec)” value is 0.58 10^-6 cm/sec. Moreover, in series [2], the microsomal CLint at 1 µM worked out at 63.5 µL/min/mg and the “Mouse Hepatic Microsome CLh,int NADPH(-)” value is recorded as 29.9 µL/min/mg Protein.
For the molecule `CC[C@H](C)[C@@H]1NC(=O)[C@H](CC(C)C)N(C)C(=O)[C@H](CC(C)C)NC(=O)[C@H](C)N(C)C(=O)C[C@@H](C(=O)N2CCCCC2)NC(=O)[C@H](CC(C)C)NC(=O)[C@@H]2CCCN2C(=O)[C@H](CC(C)C)N(C)C(=O)[C@H]([C@@H](C)O)NC(=O)[C@H]([C@@H](C)CC)N(C)C(=O)[C@H](Cc2ccccc2)N(C)C(=O)[C@H](C)NC(=O)[C@H](Cc2ccccc2)N(C)C(=O)[C@H](CC(C)C)NC1=O` [pd027] ([NMeA]L[NMeL]IL[NMeF]A[NMeF][NMeI]T[NMeL]PLD-Piperidide; lactam N-14), the Papp A→B in series [1] worked out at 0.02 ×10⁻⁶ cm/s. Further, the “Caco2 Papp (10^-6 cm/sec)” value with Caco-2 cells is given as 0.02 10^-6 cm/sec. In series [2], the microsomal CLint at 1 µM was 42.4 µL/min/mg and the “Mouse Hepatic Microsome CLh,int NADPH(-)” value is reported as 31.1 µL/min/mg Protein.
The like results for `CC[C@@H]1NC(=O)[C@H]([C@@H](C)O)N(C)C(=O)[C@H](CC(C)C)N(C)C(=O)[C@H]([C@@H](C)CC)NC(=O)[C@H](Cc2ccccc2)N(C)C(=O)CN(C)C(=O)C[C@@H](C(=O)N2CCCCC2)NC(=O)[C@H](C(C)C)N(C)C(=O)[C@H](CC)NC(=O)[C@H](COC(C)(C)C)NC(=O)[C@H](C)N(C)C(=O)[C@H](CC)NC(=O)[C@H](CC(C)C)N(C)C(=O)[C@H](CCc2ccccc2)NC1=O` [pd028] ([Sar][NMeF]I[NMeL][NMeT][Abu][hPhe][NMeL][Abu][NMeA]S(tBu)[Abu][NMeV]D-Piperidide; lactam N-14) were, in that order, 0.03 ×10⁻⁶ cm/s, 0.03 10^-6 cm/sec, 37.2 µL/min/mg and 22.1 µL/min/mg Protein.
On the same counts, the results for `CC[C@H](C)[C@@H]1NC(=O)[C@H](CC(C)C)N(C)C(=O)C[C@@H](C(=O)N2CCCCC2)NC(=O)[C@H](Cc2ccccc2)N(C)C(=O)[C@H](C(C)C)NC(=O)[C@@H]2CCCN2C(=O)[C@H]([C@@H](C)CC)NC(=O)[C@H](CC)N(C)C(=O)[C@H](C(C)C)N(C)C(=O)[C@H](CC(C)C)NC(=O)[C@H](CC(C)C)N(C)C(=O)[C@H]([C@@H](C)O)NC(=O)[C@H](Cc2ccccc2)NC(=O)CN(C)C1=O` [pd029] ([NMeL]I[Sar]FT[NMeL]L[NMeV][NMeAbu]IPV[NMeF]D-Piperidide; lactam N-14) are 0.02 ×10⁻⁶ cm/s, 0.02 10^-6 cm/sec, 38.2 µL/min/mg and 36.6 µL/min/mg Protein.
Regarding `CC[C@@H]1NC(=O)[C@H](Cc2ccccc2)N(C)C(=O)[C@H](CC(C)C)NC(=O)CNC(=O)[C@H]([C@@H](C)O)N(C)C(=O)[C@H](CC(C)C)N(C)C(=O)[C@H]([C@@H](C)CC)NC(=O)[C@H](Cc2ccccc2)N(C)C(=O)CN(C)C(=O)C[C@@H](C(=O)N2CCCCC2)NC(=O)[C@H](C(C)C)N(C)C(=O)[C@H](CC(C)C)NC(=O)[C@H](C(C)C)NC(=O)[C@H](C)N(C)C1=O` [pd030] ([Sar][NMeF]I[NMeL][NMeT]GL[NMeF][Abu][NMeA]VL[NMeV]D-Piperidide; lactam N-14), the Papp A→B in series [1] turned out to be 0.04 ×10⁻⁶ cm/s. For the same molecule, the “Caco2 Papp (10^-6 cm/sec)” value in the series with Caco-2 cells is on record as 0.04 10^-6 cm/sec. In series [2], the microsomal CLint at 1 µM came to 33.7 µL/min/mg and the “Mouse Hepatic Microsome CLh,int NADPH(-)” value was found to be 28.5 µL/min/mg Protein.
As to `CC[C@@H]1NC(=O)[C@H](C(C)C)N(C)C(=O)[C@H](CC(C)C)NC(=O)[C@H](CC(C)C)N(C)C(=O)[C@H]([C@@H](C)O)NC(=O)CN(C)C(=O)[C@H]([C@@H](C)CC)NC(=O)[C@H](Cc2ccccc2)N(C)C(=O)[C@H](CC(C)C)N(C)C(=O)C[C@@H](C(=O)N2CCCCC2)NC(=O)[C@H](Cc2ccccc2)N(C)C(=O)[C@H](COC(C)(C)C)NC(=O)[C@@H]2CCCN2C(=O)[C@H]([C@@H](C)CC)NC1=O` [pd031] ([NMeL][NMeF]I[Sar]T[NMeL]L[NMeV][Abu]IPS(tBu)[NMeF]D-Piperidide; lactam N-14), the Papp A→B in series [1] is 0.04 ×10⁻⁶ cm/s. Moreover, in the series on Caco-2 cells, the “Caco2 Papp (10^-6 cm/sec)” value is 0.04 10^-6 cm/sec. Further, in series [2], the microsomal CLint at 1 µM worked out at 40.3 µL/min/mg and the “Mouse Hepatic Microsome CLh,int NADPH(-)” value amounted to 32.3 µL/min/mg Protein.
The like results for `CC(C)C[C@@H]1NC(=O)[C@H](CC(C)C)N(C)C(=O)[C@H](C(C)C)N(C)C(=O)[C@H](CCc2ccccc2)NC(=O)[C@H]([C@@H](C)O)N(C)C(=O)[C@@H](C(C)C)NC(=O)C[C@@H](C(=O)N2CCCCC2)NC(=O)[C@H](C(C)C)N(C)C(=O)[C@H](CC(C)C)NC(=O)[C@H](Cc2ccccc2)N(C)C(=O)[C@@H]2CCCN2C(=O)[C@H](C(C)C)NC(=O)[C@H](CC(C)C)N(C)C(=O)CN(C)C1=O` [pd032] ([dV][NMeT][hPhe][NMeV][NMeL]L[Sar][NMeL]VP[NMeF]L[NMeV]D-Piperidide; lactam N-14) were, in that order, 0.72 ×10⁻⁶ cm/s, 0.72 10^-6 cm/sec, 28.9 µL/min/mg and 28.7 µL/min/mg Protein.
The like results for `CC[C@@H]1NC(=O)[C@H](C(C)C)N(C)C(=O)[C@H](CC(C)C)NC(=O)[C@H](Cc2ccccc2)N(C)C(=O)[C@@H](C(C)C)N(C)C(=O)C[C@@H](C(=O)N2CCCCC2)NC(=O)[C@H](CC(C)C)NC(=O)[C@H](C(C)C)N(C)C(=O)[C@H](Cc2ccccc2)N(C)C(=O)[C@H](CC(C)C)NC(=O)[C@H](CC(C)C)N(C)C(=O)[C@H](C)N(C)C(=O)[C@H]([C@@H](C)O)NC(=O)[C@H](CC(C)C)N(C)C1=O` [pd033] ([dNMeV][NMeF]L[NMeV][Abu][NMeL]T[NMeA][NMeL]L[NMeF][NMeV]LD-Piperidide; lactam N-14) were, in that order, 0.03 ×10⁻⁶ cm/s, 0.03 10^-6 cm/sec, 47.8 µL/min/mg and 34.1 µL/min/mg Protein.
On the same counts, the results for `CC[C@H](C)[C@@H]1NC(=O)[C@H](C)N(C)C(=O)[C@H]([C@@H](C)O)NC(=O)[C@H](Cc2ccccc2)N(C)C(=O)[C@H](COC(C)(C)C)NC(=O)[C@H](CC(C)C)N(C)C(=O)[C@H](C(C)C)NC(=O)CN(C)C(=O)[C@H](Cc2ccccc2)N(C)C(=O)[C@H]([C@@H](C)CC)NC(=O)[C@H](CC(C)C)N(C)C(=O)CCN(C)C(=O)C[C@@H](C(=O)N2CCCCC2)NC(=O)[C@H](CC(C)C)N(C)C1=O` [pd034] ([NMeβAla][NMeL]I[NMeF][Sar]V[NMeL]S(tBu)[NMeF]T[NMeA]I[NMeL]D-Piperidide; lactam N-14) are 0.27 ×10⁻⁶ cm/s, 0.27 10^-6 cm/sec, 46.8 µL/min/mg and 36.0 µL/min/mg Protein.
With `CCCCN1CC(=O)N[C@@H](CC(C)C)C(=O)N(C)[C@@H]([C@@H](C)CC)C(=O)N[C@@H](CC)C(=O)N(C)[C@@H]([C@@H](C)O)C(=O)N(C)[C@@H](Cc2ccccc2)C(=O)N[C@@H]([C@@H](C)CC)C(=O)N(C)[C@@H](CC(C)C)C(=O)N[C@H](C(=O)N2CCCCC2)CC(=O)N(C)[C@@H](C)C(=O)N[C@@H](CC(C)C)C(=O)N(C)[C@@H](CC(C)C)C(=O)N(C)[C@@H](Cc2ccccc2)C(=O)N[C@@H](CC)C1=O` [pd035] ([NMeA]L[NMeL][NMeF][Abu][NBuGly]L[NMeI][Abu][NMeT][NMeF]I[NMeL]D-Piperidide; lactam N-14), in series [1], the Papp A→B was below 0.11 ×10⁻⁶ cm/s. In the series on Caco-2 cells, the “Caco2 Papp (10^-6 cm/sec)” value is given as <0.11 10^-6 cm/sec. Moreover, in series [2], the microsomal CLint at 1 µM worked out at 28.3 µL/min/mg and the “Mouse Hepatic Microsome CLh,int NADPH(-)” value turned out to be 27.5 µL/min/mg Protein.
Turning to `CC[C@H](C)[C@H]1C(=O)N[C@@H](CC(C)C)C(=O)N(C)[C@@H](CC(C)C)C(=O)N2CCC[C@H]2C(=O)N(C)[C@@H](C(C)C)C(=O)N[C@H](C(=O)N2CCCCC2)CC(=O)N[C@@H](C)C(=O)N(C)[C@@H](CC(C)C)C(=O)N[C@@H](C(C)C)C(=O)N(C)[C@@H](Cc2ccccc2)C(=O)N(C)[C@@H](CC(C)C)C(=O)N[C@@H](C)C(=O)N(C)[C@@H](Cc2ccccc2)C(=O)N[C@@H]([C@@H](C)O)C(=O)N1C` [pd036] (A[NMeL]V[NMeF][NMeL]A[NMeF]T[NMeI]L[NMeL]P[NMeV]D-Piperidide; lactam N-14), the Papp A→B in series [1] amounted to 0.28 ×10⁻⁶ cm/s. The “Caco2 Papp (10^-6 cm/sec)” value in the series on Caco-2 cells is recorded as 0.28 10^-6 cm/sec. In addition, in series [2], the microsomal CLint at 1 µM stood at 35.4 µL/min/mg and the “Mouse Hepatic Microsome CLh,int NADPH(-)” value turned out to be 25.7 µL/min/mg Protein.
As for `CC[C@H](C)[C@H]1C(=O)N[C@@H]([C@@H](C)O)C(=O)N(C)CC(=O)N(C)[C@@H](CC(C)C)C(=O)N[C@@H](CC(C)C)C(=O)N[C@H](C(=O)N2CCCCC2)CC(=O)N(C)[C@@H](C)C(=O)N[C@@H](CC(C)C)C(=O)N(C)[C@@H](CC(C)C)C(=O)N[C@@H](C(C)C)C(=O)N(C)CCC(=O)N(C)[C@@H](Cc2ccccc2)C(=O)N[C@@H](C)C(=O)N(C)[C@@H](Cc2ccccc2)C(=O)N1C` [pd037] ([NMeA]L[NMeL]V[NMeβAla][NMeF]A[NMeF][NMeI]T[Sar][NMeL]LD-Piperidide; lactam N-14), the Papp A→B in series [1] turned out to be 0.26 ×10⁻⁶ cm/s. Moreover, the “Caco2 Papp (10^-6 cm/sec)” value with Caco-2 cells is recorded as 0.26 10^-6 cm/sec. Further, in series [2], the microsomal CLint at 1 µM turned out to be 18.3 µL/min/mg and the “Mouse Hepatic Microsome CLh,int NADPH(-)” value was found to be 17.7 µL/min/mg Protein.

(Values after patent EP4768499A1, “MACROCYCLIC PEPTIDE COMPOUND HAVING CELL MEMBRANE PERMEABILITY AND METABOLIC STABILITY, AND LIBRARY CONTAINING SAME” (Chugai Seiyaku Kabushiki Kaisha, priority 2023, dated 2025).)
